From the supplement of paper PMC10307832

Legend:
Test in all cases: relative viability (nuclei count vs DMSO), 5 days (fraction); higher = more cells survive
[1] = compound: COC1=CC(c2cc3ccccc3[nH]2)=N/C1=C\c1[nH]c(C)cc1C [Obatoclax] + NC(=O)Nc1cc(-c2cccc(F)c2)sc1C(=O)N[C@H]1CCCNC1 [AZD7762] (partner 0.2 µM)
Outline: (§1)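 Lung cancer cell lines were seeded in 1536-well plates and dosed by pin tool the next day, with either a single drug or a fixed anchor-drug dose combined with five library-drug doses (not always all listed) spaced in √10 steps. Five days later, one step fixed the cells and stained their nuclei (final 0.05% Triton X-100, 1% formaldehyde, 1 ug/ml Hoechst), and nuclei were counted on 4× images. Relative viability is the nuclei count in treated wells divided by the count in vehicle wells, and each value is the median of duplicate plates.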

[2] = compound: COC1=CC(c2cc3ccccc3[nH]2)=N/C1=C\c1[nH]c(C)cc1C [Obatoclax] + Cc1nc(Nc2ncc(C(=O)Nc3c(C)cccc3Cl)s2)cc(N2CCN(CCO)CC2)n1 [Dasatinib] (partner 0.075 µM)
Outline: as §1

[3] = compound: COC1=CC(c2cc3ccccc3[nH]2)=N/C1=C\c1[nH]c(C)cc1C [Obatoclax] + CC(=O)Nc1cccc(-n2c(=O)n(C3CC3)c(=O)c3c(Nc4ccc(I)cc4F)n(C)c(=O)c(C)c32)c1 [Trametinib] (partner 0.02 µM)
Outline: as §1

[4] = compound: CC(C)C[C@H](NC(=O)[C@H](Cc1ccccc1)NC(=O)c1cnccn1)B(O)O [Bortezomib] + CS(=O)(=O)CCNCc1ccc(-c2ccc3ncnc(Nc4ccc(OCc5cccc(F)c5)c(Cl)c4)c3c2)o1 [Lapatinib] (partner 2 µM)
Outline: as §1

NCI-H3122
relative viability ([1]; first compound 0.01 µM): 1.03
relative viability ([1]; first compound 0.03162 µM): 0.962
relative viability ([1]; first compound 0.1 µM): 0.971
relative viability ([1]; first compound 0.3162 µM): 0.949
relative viability ([1]; first compound 1 µM): 1
relative viability ([2]; first compound 0.01 µM): 0.925
relative viability ([2]; first compound 0.03162 µM): 0.843
relative viability ([2]; first compound 0.1 µM): 0.798
relative viability ([2]; first compound 0.3162 µM): 0.674
relative viability ([2]; first compound 1 µM): 0.766
relative viability ([3]; first compound 0.01 µM): 0.251
relative viability ([3]; first compound 0.03162 µM): 0.215
relative viability ([3]; first compound 0.1 µM): 0.241
relative viability ([3]; first compound 0.3162 µM): 0.205
relative viability ([3]; first compound 1 µM): 0.212
relative viability ([4]; first compound 0.0002 µM): 0.943
relative viability ([4]; first compound 0.000632 µM): 1.01
relative viability ([4]; first compound 0.002 µM): 1.01
relative viability ([4]; first compound 0.006325 µM): 0.902
relative viability ([4]; first compound 0.02 µM): 0.202

PC-3 [JPC-3]
relative viability ([1]; first compound 0.01 µM): 0.825
relative viability ([1]; first compound 0.03162 µM): 0.834
relative viability ([1]; first compound 0.1 µM): 0.808
relative viability ([1]; first compound 0.3162 µM): 0.607
relative viability ([1]; first compound 1 µM): 0.419
relative viability ([2]; first compound 0.01 µM): 0.963
relative viability ([2]; first compound 0.03162 µM): 1.02
relative viability ([2]; first compound 0.1 µM): 1.01
relative viability ([2]; first compound 0.3162 µM): 1.01
relative viability ([2]; first compound 1 µM): 0.943
relative viability ([3]; first compound 0.01 µM): 0.643
relative viability ([3]; first compound 0.03162 µM): 0.71
relative viability ([3]; first compound 0.1 µM): 0.621
relative viability ([3]; first compound 0.3162 µM): 0.667
relative viability ([3]; first compound 1 µM): 0.47
relative viability ([4]; first compound 0.0002 µM): 0.469
relative viability ([4]; first compound 0.000632 µM): 0.453
relative viability ([4]; first compound 0.002 µM): 0.49
relative viability ([4]; first compound 0.006325 µM): 0.364
relative viability ([4]; first compound 0.02 µM): 0.16

PC-14
relative viability ([1]; first compound 0.01 µM): 0.304
relative viability ([1]; first compound 0.03162 µM): 0.328
relative viability ([1]; first compound 0.1 µM): 0.269
relative viability ([1]; first compound 0.3162 µM): 0.339
relative viability ([1]; first compound 1 µM): 0.112
relative viability ([2]; first compound 0.01 µM): 0.285
relative viability ([2]; first compound 0.03162 µM): 0.286
relative viability ([2]; first compound 0.1 µM): 0.225
relative viability ([2]; first compound 0.3162 µM): 0.0723
relative viability ([2]; first compound 1 µM): 0.0415
relative viability ([3]; first compound 0.01 µM): 0.719
relative viability ([3]; first compound 0.03162 µM): 0.665
relative viability ([3]; first compound 0.1 µM): 0.513
relative viability ([3]; first compound 0.3162 µM): 0.104
relative viability ([3]; first compound 1 µM): 0.0647
relative viability ([4]; first compound 0.0002 µM): 0.323
relative viability ([4]; first compound 0.000632 µM): 0.356
relative viability ([4]; first compound 0.002 µM): 0.354
relative viability ([4]; first compound 0.006325 µM): 0.239
relative viability ([4]; first compound 0.02 µM): 0.0862

RERF-LC-KJ
relative viability ([1]; first compound 0.01 µM): 1.04
relative viability ([1]; first compound 0.03162 µM): 0.914
relative viability ([1]; first compound 0.1 µM): 0.732
relative viability ([1]; first compound 0.3162 µM): 0.838
relative viability ([1]; first compound 1 µM): 0.923
relative viability ([2]; first compound 0.01 µM): 0.796
relative viability ([2]; first compound 0.03162 µM): 0.894
relative viability ([2]; first compound 0.1 µM): 0.701
relative viability ([2]; first compound 0.3162 µM): 0.745
relative viability ([2]; first compound 1 µM): 0.513
relative viability ([3]; first compound 0.01 µM): 0.888
relative viability ([3]; first compound 0.03162 µM): 0.834
relative viability ([3]; first compound 0.1 µM): 0.835
relative viability ([3]; first compound 0.3162 µM): 0.869
relative viability ([3]; first compound 1 µM): 0.769
relative viability ([4]; first compound 0.0002 µM): 0.82
relative viability ([4]; first compound 0.000632 µM): 0.91
relative viability ([4]; first compound 0.002 µM): 0.846
relative viability ([4]; first compound 0.006325 µM): 0.653
relative viability ([4]; first compound 0.02 µM): 0.242
